Here are results for 24 molecules from publication PMC11597353, “Synthesis of Novel Gefitinib-Conjugated 1,2,3-Triazole Derivatives and Their Effect of Inducing DNA Damage and Apoptosis in Tumor Cells” (Molecules, 2024).

Where two headings read alike, the source gives them in different places.

In data set [1] the test system is HT-29. More on the design: method as in PMID 31078767. The note with it: HT-29, MTT method; cited from earlier work. On the technique in general: Formazan colour is commonly taken as a measure of viable cells.
In data set [2] the test system is MCF-7. More on the design: method as in PMID 31078767. The note with it: MCF-7, MTT method; cited from earlier work.
Data set [3] relates to MOLT-4. More on the design: method as in PMID 31078767. The note with it: MOLT-4, MTT method; cited from earlier work.
For data set [4], the system named is breast cancer cells (MDA-MB-468). More on the design: method as in PMID 31586710. The note with it: 2.5 μM; cited from earlier work.
For data set [5], the system named is HepG2 cells. More on the design: method as in PMID 32745759. The note with it: read-out: IC50, growth of HepG2 cells; cited from earlier work.
For data set [6], the system named is VEGFR-2. Further details: method as in PMID 37611529. The note with it: cited from earlier work.
For data set [7], the system named is EGFR T790M. More on the design: method as in PMID 37611529. The note with it: cited from earlier work.
Data set [8] deals with HepG2 cells. More on the design: method as in PMID 34237623, PMID 38675717. The note with it: read-out: IC50, inhibitory activity against HepG2 cells; cited from earlier work.
Data set [9] concerns HepG2 cells. Briefly: CCK8 cell viability / IC50 assay on HepG2 cells. The note with it: for % Cell Viability (10 μM): 72 h; for IC50: read-out: HepG2, IC50 (μM) 72 h.

The IC50 is the concentration that gives 50% inhibition. `O=C1C=C(NCc2cn(Cc3ccc(C(F)(F)F)cc3)nn2)C(=O)c2ccccc21` [Compound 2]: the IC50 is 6.8 µM in data set [1], 10.4 µM in [2] and 8.4 µM in data set [3].
In the case of `O=C(C1=Cc2cc3ccccc3n2Cc2cnnn21)c1ccccc1` [Compound 3], the “colony formation in breast cancer cells (MDA-MB-468)” value in data set [4] is on record as “completely inhibited”.
Take `Cc1cc(C)nc(NS(=O)(=O)c2ccc(-n3cc(CCc4nc5ccccc5s4)nn3)cc2)n1` [Compound 4]: the half-inhibitory concentration (IC50) in data set [5] is 1.49 µM.
For `NS(=O)(=O)c1ccc(-n2c(SCC(=O)Nc3cccc4ccccc34)nc3ccc(I)cc3c2=O)cc1` [Compound 7], the values for the IC50 in [6] and in [7] were 0.0523 µM and 0.0728 µM, respectively.
`COc1cc(C(=O)c2nc3ccccc3c(=O)[nH]2)cc(OC)c1OC` [Compound 8]: in data set [8], the half-inhibitory concentration (IC50) is 1.22 µM.
For orientation: melting point means the temperature of the solid-liquid transition. Molecule `COc1cc2ncnc(Nc3cccc(-c4cn(Cc5ccc(Br)cc5)nn4)c3)c2cc1OCCCN1CCOCC1` [Compound 11a, N-(3-(1-(4-bromobenzyl)-1H-1,2,3-triazol-4-yl)phenyl)-7-methoxy-6-(3-morpholinopropoxy)quinazolin-4-amine] showed a melting point of 177 to 178 °C. Also, in data set [9], the “% Cell Viability (10 μM)” value is recorded as 7.07 ± 0.49% and the IC50 was found to be 5.49 ± 0.21 µM.
As to `COc1cc2ncnc(Nc3cccc(-c4cn(Cc5ccccc5C#N)nn4)c3)c2cc1OCCCN1CCOCC1` [Compound 11b, 2-((4-(3-((7-methoxy-6-(3-morpholinopropoxy)quinazolin-4-yl)amino)phenyl)-1H-1,2,3-triazol-1-yl)methyl)benzonitrile], the melting point was 167 to 168 °C. In addition, the “% Cell Viability (10 μM)” value in [9] is reported as 59.50 ± 2.74%.
As for `COc1cc2ncnc(Nc3cccc(-c4cn(Cc5cc(Br)cc(Br)c5)nn4)c3)c2cc1OCCCN1CCOCC1` [Compound 11c, N-(3-(1-(3,5-dibromobenzyl)-1H-1,2,3-triazol-4-yl)phenyl)-7-methoxy-6-(3-morpholinopropoxy)quinazolin-4-amine], the “% Cell Viability (10 μM)” value in data set [9] is listed as 37.72 ± 2.38%.
In turn, `COc1cc2ncnc(Nc3cccc(-c4cn(Cc5ccc(C)cc5)nn4)c3)c2cc1OCCCN1CCOCC1` [Compound 11d, 7-methoxy-N-(3-(1-(4-methylbenzyl)-1H-1,2,3-triazol-4-yl)phenyl)-6-(3-morpholinopropoxy)quinazolin-4-amine] registered a melting point of 168 to 169 °C. Also, the “% Cell Viability (10 μM)” value in data set [9] stood at 36.48 ± 2.89%.
On to `COc1cc2ncnc(Nc3cccc(-c4cn(Cc5cc(F)ccc5Br)nn4)c3)c2cc1OCCCN1CCOCC1` [Compound 11e, N-(3-(1-(2-bromo-5-fluorobenzyl)-1H-1,2,3-triazol-4-yl)phenyl)-7-methoxy-6-(3-morpholinopropoxy)quinazolin-4-amine], for which, in [9], the “% Cell Viability (10 μM)” value turned out to be 7.03 ± 0.16% and the IC50 worked out at 4.04 ± 0.21 µM.
Turning to `COc1cc2ncnc(Nc3cccc(-c4cn(Cc5ccc(Br)cc5F)nn4)c3)c2cc1OCCCN1CCOCC1` [Compound 11f, N-(3-(1-(4-bromo-2-fluorobenzyl)-1H-1,2,3-triazol-4-yl)phenyl)-7-methoxy-6-(3-morpholinopropoxy)quinazolin-4-amine], the melting point is 169 to 170 °C. In data set [9], the “% Cell Viability (10 μM)” value came to 5.72 ± 0.40% and the IC50 was determined as 5.15 ± 0.31 µM.
The corresponding values for `COc1cc2ncnc(Nc3cccc(-c4cn(Cc5ccc(F)c(Cl)c5)nn4)c3)c2cc1OCCCN1CCOCC1` [Compound 11g, N-(3-(1-(3-chloro-4-fluorobenzyl)-1H-1,2,3-triazol-4-yl)phenyl)-7-methoxy-6-(3-morpholinopropoxy)quinazolin-4-amine] are 179 to 181 °C, 6.50 ± 0.88% and 5.23 ± 0.2 µM.
Taken in the same sequence, the figures for `COc1cc2ncnc(Nc3cccc(-c4cn(Cc5c(F)cccc5Cl)nn4)c3)c2cc1OCCCN1CCOCC1` [Compound 11h, N-(3-(1-(2-chloro-6-fluorobenzyl)-1H-1,2,3-triazol-4-yl)phenyl)-7-methoxy-6-(3-morpholinopropoxy)quinazolin-4-amine] were 177 to 180 °C, 6.80 ± 0.14% and 3.91 ± 0.08 µM.
Consider `COc1cc2ncnc(Nc3cccc(-c4cn(Cc5ccccc5[N+](=O)[O-])nn4)c3)c2cc1OCCCN1CCOCC1` [Compound 11i, 7-methoxy-6-(3-morpholinopropoxy)-N-(3-(1-(2-nitrobenzyl)-1H-1,2,3-triazol-4-yl)phenyl)quinazolin-4-amine], for which the “% Cell Viability (10 μM)” value in [9] is recorded as 70.10 ± 3.40%.
As to `COc1cc2ncnc(Nc3cccc(-c4cn(Cc5ccc([N+](=O)[O-])cc5)nn4)c3)c2cc1OCCCN1CCOCC1` [Compound 11j, 7-methoxy-6-(3-morpholinopropoxy)-N-(3-(1-(4-nitrobenzyl)-1H-1,2,3-triazol-4-yl)phenyl)quinazolin-4-amine], the melting point fell in the range of 171 to 173 °C. For the same molecule, in data set [9], the “% Cell Viability (10 μM)” value is recorded as 47.33 ± 2.17%.
Regarding `COc1cc2ncnc(Nc3cccc(-c4cn(Cc5ccccc5F)nn4)c3)c2cc1OCCCN1CCOCC1` [Compound 11k, N-(3-(1-(2-fluorobenzyl)-1H-1,2,3-triazol-4-yl)phenyl)-7-methoxy-6-(3-morpholinopropoxy)quinazolin-4-amine], the melting point was in the range of 184 to 186 °C. Also, in data set [9], the “% Cell Viability (10 μM)” value was determined as 14.72 ± 2.29% and the IC50 was 6.21 ± 0.24 µM.
Consider `COc1cc2ncnc(Nc3cccc(-c4cn(Cc5ccc(C(F)(F)F)cc5)nn4)c3)c2cc1OCCCN1CCOCC1` [Compound 11l, 7-methoxy-6-(3-morpholinopropoxy)-N-(3-(1-(4-(trifluoromethyl)benzyl)-1H-1,2,3-triazol-4-yl)phenyl)quinazolin-4-amine], for which, in data set [9], the “% Cell Viability (10 μM)” value is 5.85 ± 1.15% and the IC50 came to 4.53 ± 0.37 µM.
`COc1cc2ncnc(Nc3cccc(-c4cn(Cc5cccc(Cl)c5)nn4)c3)c2cc1OCCCN1CCOCC1` [Compound 11n, N-(3-(1-(3-chlorobenzyl)-1H-1,2,3-triazol-4-yl)phenyl)-7-methoxy-6-(3-morpholinopropoxy)quinazolin-4-amine] gave a melting point of 164 to 165 °C. In [9], the “% Cell Viability (10 μM)” value stood at 7.68 ± 0.34% and the 50% inhibitory concentration (IC50) was found to be 6.1 ± 0.06 µM.
Regarding `COc1cc2ncnc(Nc3cccc(-c4cn(Cc5ccc(Cl)cc5)nn4)c3)c2cc1OCCCN1CCOCC1` [Compound 11o, N-(3-(1-(4-chlorobenzyl)-1H-1,2,3-triazol-4-yl)phenyl)-7-methoxy-6-(3-morpholinopropoxy)quinazolin-4-amine], the melting point was in the range of 165 to 167 °C. Further, in data set [9], the “% Cell Viability (10 μM)” value is 8.06 ± 0.88% and the IC50 is 5.14 ± 0.25 µM.
As for `COc1cc2ncnc(Nc3cccc(-c4cn(Cc5ccccc5C)nn4)c3)c2cc1OCCCN1CCOCC1` [Compound 11p, 7-methoxy-N-(3-(1-(2-methylbenzyl)-1H-1,2,3-triazol-4-yl)phenyl)-6-(3-morpholinopropoxy)quinazolin-4-amine], the melting point was in the range of 169 to 171 °C. In data set [9], the “% Cell Viability (10 μM)” value was 17.36 ± 1.24% and the concentration for half-maximal inhibition (IC50) was determined as 10.1 ± 0.14 µM.
Taken in the same sequence, the figures for `COc1cc2ncnc(Nc3cccc(-c4cn(Cc5cc(C)cc(C)c5)nn4)c3)c2cc1OCCCN1CCOCC1` [Compound 11q, N-(3-(1-(3,5-dimethylbenzyl)-1H-1,2,3-triazol-4-yl)phenyl)-7-methoxy-6-(3-morpholinopropoxy)quinazolin-4-amine] were 172 to 173 °C, 7.14 ± 0.95% and 5.38 ± 0.57 µM.
The corresponding values for `COc1cc2ncnc(Nc3cccc(-c4cn(Cc5cc(F)ccc5C#N)nn4)c3)c2cc1OCCCN1CCOCC1` [Compound 11r, 4-fluoro-2-((4-(3-((7-methoxy-6-(3-morpholinopropoxy)quinazolin-4-yl)amino)phenyl)-1H-1,2,3-triazol-1-yl)methyl)benzonitrile] are 164 to 166 °C, 9.11 ± 1.63% and 6.68 ± 0.11 µM.
`COc1cc(Cn2cc(-c3cccc(Nc4ncnc5cc(OC)c(OCCCN6CCOCC6)cc45)c3)nn2)cc(OC)c1` [Compound 11s, N-(3-(1-(3,5-dimethoxybenzyl)-1H-1,2,3-triazol-4-yl)phenyl)-7-methoxy-6-(3-morpholinopropoxy)quinazolin-4-amine] returned a melting point of 167 to 170 °C. Also, the “% Cell Viability (10 μM)” value in data set [9] is 22.89 ± 1.97%.
On to `COc1cc2ncnc(Nc3ccc(F)c(Cl)c3)c2cc1OCCCN1CCOCC1` [Gefitinib], for which, in data set [9], the “% Cell Viability (10 μM)” value was determined as 31.03 ± 2.42%.
